Test results from ChEMBL document CHEMBL1147449, “Synthesis of analogues of a potent antitumor saponin OSW-1” (Bioorg Med Chem Lett, 2004).

Tests used:
Details in all cases: Homo sapiens
Ishikawa [1] = assay: Inhibition of the necrosis induced by compound in endometrial cancer ishikawa cell line after 24 hr; type: functional, cell-based
Ishikawa [2] = assay: Cytotoxicity (growth inhibition) against endometrial cancer ishikawa cell line at 10E-5 mol/L after 24 hr; type: functional
Ishikawa [3] = assay: Cytotoxicity (growth inhibition) against endometrial cancer ishikawa cell line at 10E-6 mol/L after 24 hr; type: functional
Ishikawa [4] = assay: Cytotoxicity (growth inhibition) against endometrial cancer ishikawa cell line at 10E-7 mol/L after 24 hr; type: functional
Ishikawa [5] = assay: Cytotoxicity (growth inhibition) against endometrial cancer ishikawa cell line at 10E-8 mol/L after 24 hr; type: functional
Ishikawa [6] = assay: Cytotoxicity (growth inhibition) against endometrial cancer ishikawa cell line at 10E-9 mol/L after 24 hr; type: functional
MCF7 [7] = assay: Cytotoxicity (growth inhibition) against breast cancer MCF-7 cell line at 10E-6 mol/L; type: functional
MCF7 [8] = assay: Cytotoxicity (growth inhibition) against breast cancer MCF-7 cell line at 10E-7 mol/L; type: functional
MCF7 [9] = assay: Cytotoxicity (growth inhibition) against breast cancer MCF-7 cell line at 10E-8 mol/L; type: functional
MCF7 [10] = assay: Cytotoxicity (growth inhibition) against breast cancer MCF-7 cell line at 10E-9 mol/L; type: functional
MCF7 [11] = assay: Inhibition of the necrosis induced by compound in breast cancer MCF-7 cell line; type: functional, cell-based
MDA-MB-231 [12] = assay: Inhibition of the necrosis induced by compound in breast cancer MDAMB-231 cell line; type: functional, cell-based
MDA-MB-231 [13] = assay: Cytotoxicity (growth inhibition) against breast cancer MDAMB-231 cell line at 10E-5 mol/L; type: functional
MDA-MB-231 [14] = assay: Cytotoxicity (growth inhibition) against breast cancer MDAMB-231 cell line at 10E-6 mol/L; type: functional
MDA-MB-231 [15] = assay: Cytotoxicity (growth inhibition) against breast cancer MDAMB-231 cell line at 10E-7 mol/L; type: functional
MDA-MB-231 [16] = assay: Cytotoxicity (growth inhibition) against breast cancer MDAMB-231 cell line at 10E-8 mol/L; type: functional
MDA-MB-231 [17] = assay: Cytotoxicity (growth inhibition) against breast cancer MDAMB-231 cell line at 10E-9 mol/L; type: functional
MCF7 [18] = assay: Cytotoxicity (growth inhibition) against breast cancer MCF-7 cell line at 10E-5 mol/L; type: functional

`COc1ccc(C(=O)O[C@H]2[C@H](O[C@@H]3[C@@H](OC(C)=O)[C@H](O[C@H]4C[C@H]5[C@@H]6CC=C7C[C@@H](O)CC[C@]7(C)[C@H]6CC[C@]5(C)[C@@]4(O)[C@H](C)C(=O)CCC(C)C)OC[C@@H]3O)OC[C@@H](O)[C@@H]2O)cc1` was tested, and the IC50 (Ishikawa [1]) was 3000 nM, the inhibition at 10 µM (Ishikawa [2]) was 100% and the inhibition at 1 µM (Ishikawa [3]) was 100%. For the same compound, the inhibition at 0.1 µM (Ishikawa [4]) was 100%, the inhibition at 0.01 µM (Ishikawa [5]) was 100% and the inhibition at 0.001 µM (Ishikawa [6]) was 95%. For the same compound, the inhibition at 1 µM (MCF7 [7]) was 100%, the inhibition at 0.1 µM (MCF7 [8]) was 100% and the inhibition at 0.01 µM (MCF7 [9]) was 100%. It also gave an inhibition at 0.001 µM (MCF7 [10]) of 87%, an IC50 (MCF7 [11]) of 7000 nM and an IC50 (MDA-MB-231 [12]) of 500 nM. The inhibition at 10 µM (MDA-MB-231 [13]) was 100%, the inhibition at 1 µM (MDA-MB-231 [14]) was 100% and the inhibition at 0.1 µM (MDA-MB-231 [15]) was 100%. It also gave an inhibition at 0.01 µM (MDA-MB-231 [16]) of 100%, an inhibition at 0.001 µM (MDA-MB-231 [17]) of 100% and an inhibition at 10 µM (MCF7 [18]) of 100%.
